Like-named read-outs stand apart in the source and are kept apart here.
Assays:
[1] = Test B: Cytotoxicity assay; assay type: cell-based; settings: human, uninfected MT-4 cells, same protocol as Test A, CellTiter-Glo
Experimental: (§1) For the antiviral assay, 40 μL of 1× test concentration of 3-fold serially diluted compound in culture medium with 10% FBS was added to each well of a 384-well plate (10 concentrations) in quadruplicate. MT-4 cells were next mixed with HIV-IIIb at an m.o.i of 0.003 for 1 hour, after which time 35 μL of virus/cell mixture (2000 cells) was immediately added to each well containing 40 μL of diluted compound. The plates were then incubated at 37° C. for 5 days. After 5 days of incubation, 25 μl of 2× concentrated CellTiter-Glo™ Reagent (catalog #G7571, Promega Biosciences, Inc., Madison, Wis.) was added to each well containing MT-4 cells. Cell lysis was carried out by incubating at room temperature for 10 min and then chemiluminescence was read.
Test B:Cytotoxicity assay
Compound cytotoxicity and the corresponding CC50 values was determined using the same protocol as described in the antiviral assay (Test A) except that uninfected cells were used.

[2] = test system: HIV-IIIb; assay: Test A: Antiviral Assay in MT4 Cells; assay type: cell-based, HIV-1; settings: read-out: % inhibition at 6 μM
Experimental: Test A: Antiviral Assay in MT4 Cells
as §1

[3] = Human immunodeficiency virus 1, MT4, 120 h, percent inhibition of virus-induced cell killing at 6 μM drug concentration, from the dose response curve, MT-4 cells infected with HIV-IIIb, 5 days
[4] = Human immunodeficiency virus 1, IIIB, MT4, 120 h

| SMILES | CC50 at 5 days [1] [µM] | inhibition at 6 µM [2, 3] [%] | inhibition at 6 µM [2, 4] [%] |
| --- | --- | --- | --- |
| O=C(Cc1c[nH]c2ccc(F)cc12)NC(Cc1cc(F)cc(F)c1)c1cnc(-c2ccc(Cl)cc2)o1 (stereo not shown) [Compound 19F, N-(1-(2-(4-chlorophenyl)oxazol-5-yl)-2-(3,5-difluorophenyl)ethyl)-2-(5-fluoro-1H-indol-3-yl)acetamide] | 9.14 | 0 | – |
| O=C(Cc1c[nH]c2ccc(F)cc12)N[C@@H](Cc1ccccc1)c1nc(-c2ccccc2)no1 [Compound 18B, (S)-2-(5-fluoro-1H-indol-3-yl)-N-(2-phenyl-1-(3-phenyl-1,2,4-oxadiazol-5-yl)ethyl)acetamide] | > 53 | – | 4 |
| Cc1nc(-c2ccccc2)c(C(Cc2ccccc2)NC(=O)Cc2c[nH]c3ccc(O)cc23)s1 (stereo not shown) [Compound 15C, 2-(5-hydroxy-1H-indol-3-yl)-N-(1-(2-methyl-4-phenylthiazol-5-yl)-2-phenylethyl)acetamide] | 35 | 0 | – |
| Cc1nnc(C(Cc2ccccc2)NC(=O)Cc2c[nH]c3ccc(O)cc23)n1-c1ccccc1 (stereo not shown) [Compound 10G, 2-(5-hydroxy-1H-indol-3-yl)-N-(1-(5-methyl-4-phenyl-4H-1,2,4-triazol-3-yl)-2-phenylethyl)acetamide] | > 53.2 | 51 | – |
| Cn1cnc(C(Cc2cc(F)cc(F)c2)NC(=O)Cc2c[nH]c3ccc(F)cc23)c1-c1ccc(Cl)cc1 (stereo not shown) [Compound 29G, N-(1-(5-(4-chlorophenyl)-1-methyl-1H-imidazol-4-yl)-2-(3,5-difluorophenyl)ethyl)-2-(5-fluoro-1H-indol-3-yl)acetamide] | 10.8 | – | 44 |
| O=C(Cc1c[nH]c2ccc(F)cc12)N[C@@H](Cc1cc(F)cc(F)c1)c1nocc1-c1ccc(Cl)cc1 [Compound 25I, (S)—N-(1-(4-(4-chlorophenyl)isoxazol-3-yl)-2-(3,5-difluorophenyl)ethyl)-2-(5-fluoro-1H-indol-3-yl)acetamide] | 9.89 | 68 | – |
| COc1ccc2[nH]cc(CC(=O)NC(Cc3cc(F)cc(F)c3)c3ncoc3-c3ccc(Cl)cc3)c2n1 (stereo not shown) [Compound 35, N-(1-(5-(4-chlorophenyl)oxazol-4-yl)-2-(3,5-difluorophenyl)ethyl)-2-(5-methoxy-1H-pyrrolo[3,2-b]pyridin-3-yl)acetamide] | 15.3 | 0 | – |
| O=C(Cn1nc(C(F)(F)F)c2c1CCCC2)N[C@@H](Cc1cc(F)cc(F)c1)c1nocc1-c1ccc(Cl)cc1 [Compound 27, (S)—N-(1-(4-(4-chlorophenyl)isoxazol-3-yl)-2-(3,5-difluorophenyl)ethyl)-2-(3-(trifluoromethyl)-4,5,6,7-tetrahydro-1H-indazol-1-yl)acetamide] | 6.17 | 28 | – |
| O=C(Cn1nc(C(F)(F)F)c2c1CCCC2)N[C@@H](Cc1ccccc1)c1nccn1-c1ccccc1 [Compound 1E, (S)—N-(2-phenyl-1-(1-phenyl-1H-imidazol-2-yl)ethyl)-2-(3-(trifluoromethyl)-4,5,6,7-tetrahydro-1H-indazol-1-yl)acetamide] | 21.9 | – | 83 |
| O=C(Cc1c[nH]c2ccc(O)cc12)NC(Cc1cc(F)cc(F)c1)c1ncoc1-c1ccc(Cl)cc1 (stereo not shown) [Compound 34, N-(1-(5-(4-chlorophenyl)oxazol-4-yl)-2-(3,5-difluorophenyl)ethyl)-2-(5-hydroxy-1H-indol-3-yl)acetamide] | 22.1 | 0 | – |
| O=C(Cn1nc(C(F)(F)F)c2c1CCCC2)NC(Cc1ccccc1)c1cnnn1-c1ccccc1 (stereo not shown) [Compound 9E, N-(2-phenyl-1-(1-phenyl-1H-1,2,3-triazol-5-yl)ethyl)-2-(3-(trifluoromethyl)-4,5,6,7-tetrahydro-1H-indazol-1-yl)acetamide] | 13.2 | – | 0 |
